Results as given in patent US20100119599A1 (ARCHER PHARMACEUTICALS, INC., priority 2006, published 2010).
Read-outs that look alike come from different tables or passages of the source.

Columns and labels:
[1] = test system: Aβ1-40; assay: Measurement of Aβ1-40 in culture medium of 7W WT APP751 CHO cells by ELISA; format: cell-based, Chinese hamster; settings: for activity at 5 µM: Cricetulus griseus, 5 μM test compound, CHO cells stably transfected with human APP751, culture medium, ELISA, control DMSO; for Aβ1-40 (% of control): CHO cells that overexpress APP751, zero = below the detection limit of the assay;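 on all read-outs here: 5 µM test compound but RI-coded compounds at 10 µM for 24 hours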
[2] = test system: Aβ1-42; assay: Measurement of Aβ1-42 in culture medium of 7W WT APP751 CHO cells by ELISA; format: cell-based, Chinese hamster; settings: for activity at 5 µM: Cricetulus griseus, 5 μM test compound, CHO cells stably transfected with human APP751, culture medium, ELISA, control DMSO; for Aβ1-42 (% of control): CHO cells that overexpress APP751, zero = below the detection limit of the assay;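 on Aβ1-42 (% of control): 5 µM test compound but RI-coded compounds at 10 µM for 24 hours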
[3] = Table 1, 0 = no detectable amount
[4] = Table 1, 0 = no detectable amount, read-out: Aβ1-42 (% of control)
[5] = Table 3, read-out: Aβ-42 (% of control)

| SMILES | activity at 5 µM [1, 3] [%] | activity at 5 µM [2, 4] [%] | also measured |
| --- | --- | --- | --- |
| COC(=O)C1=C(C)NC2=C(C(=O)CC(c3ccc(OC)cc3)C2)C1c1cccc(OC)c1OC (stereo not shown) [ST016999, methyl 4-(2,3-dimethoxyphenyl)-7-(4-methoxyphenyl)-2-methyl-5-oxo-1,4,6,7,8-pentahydroquinoline-3-carboxylate] | 67.3 | 82.8 | – |
| N#CC1=C(N)N(c2sc3c(c2C#N)CCCC3)C2=C(CCC2)C1(C(F)(F)F)C(F)(F)F [ST044920, 2-[2-amino-4,4-bis(trifluoromethyl)-3-cyano-1,4,5,6,7-pentahydrocyclopenta[1,2-b]pyridinyl]-4,5,6,7-tetrahydrobenzo[b]thiophene-3-carbonitrile] | – | – | activity at 5 µM ([1]; Table 3): 76.9%; activity at 5 µM [2, 5]: 48.2% |
| CC1=C(C(=O)OCc2ccccc2)C(c2cc3c(cc2[NH+]([O-])O)OCO3)C2=C(CC(C)(C)CC2=O)N1 (stereo not shown) [ST013052, phenylmethyl 2,7,7-trimethyl-4-(6-nitro(2H-benzo[d]1,3-dioxolan-5-yl))-5-oxo-1,4,6,7,8-pentahydroquinoline-3-carboxylate] | 68.8 | 72.4 | – |
| CCOC(=O)C1=C(C)NC2=C(C(=O)CCC2)C1c1ccc(C(=O)OC)cc1 (stereo not shown) [ST013173, methyl 4-[3-(ethoxycarbonyl)-2-methyl-5-oxo-4-1,4,6,7,8-pentahydroquinolyl]benzoate] | 39.2 | 78.1 | – |
| CCCCOC(=O)C1=C(C)NC2=C(C(=O)CC(C)(C)C2)C1c1cccc2ccccc12 (stereo not shown) [ST013208, butyl 2,7,7-tnmethyl-4-naphthyl-5-oxo-1,4,6,7,8-pentahydroquinoline-3-carboxylate] | 0 | 20.2 | – |
| CC1=C(C(=O)OCC(C)C)C(c2ccc3c(c2)OCO3)C2=C(CC(c3ccccc3)CC2=O)N1 (stereo not shown) [ST016978, 2-methylpropyl 4-(2H-benzo[3,4-d]1,3-dioxolen-5-yl)-2-methyl-5-oxo-7-phenyl-1,4,6,7,8-pentahydroquinoline-3-carboxylate] | 45.9 | 99.5 | – |
| COC(=O)C1=CN(Cc2ccc(F)cc2)C=C(C(=O)OC)C1c1ccc(Cl)cc1 [ST024836, methyl 4-(4-chlorophenyl)-1-[(4-fluorophenyl)methyl]-5-(methoxycarbonyl)-1,4-dihydropyridine-3-carboxylate] | – | – | Aβ1-40 (% of control) [1]: 26.41 % of control; Aβ1-42 (% of control) [2]: 82.55 % of control |
| COCCOC(=O)C1=C(C)NC2=C(C(=O)CCC2)C1c1ccccc1OC (stereo not shown) [ST013365, 2-methoxyethyl 4-(2-methoxyphenyl)-2-methyl-5-oxo-1,4,6,7,8-pentahydroquinoline-3-carboxylate] | 84.5 | 56 | – |
| CC1=C(C(=O)OCCc2ccccc2)C(c2ccccc2Cl)C2=C(CC(C)(C)CC2=O)N1 (stereo not shown) [ST015085, 2-phenylethyl 4-(2-chlorophenyl)-2,7,7-trimethyl-5-oxo-1,4,6,7,8-pentahydroquinoline-3-carboxylate] | 69.9 | 72.9 | – |
| CCOc1ccc(C2C(C(=O)OC(C)C)=C(C)NC3=C2C(=O)CC(c2ccc(OC)cc2)C3)cc1 (stereo not shown) [ST017011, methylethyl 4-(4-ethoxyphenyl)-7-(4-methoxyphenyl)-2-methyl-5-oxo-1,4,6,7,8-pentahydroquinoline-3-carboxylate] | 45.7 | 74 | – |
| COC(=O)C1=C(C)NC2=C(C(=O)CCC2)C1c1cccc(C(F)(F)F)c1 (stereo not shown) [ST052347, methyl 2-methyl-5-oxo-4-[3-(trifluoromethyl)phenyl]-1,4,6,7,8-pentahydroquinoline-3-carboxylate] | 57.2 | 64.3 | – |
| CC1=C(C(=O)OCCc2ccccc2)C(c2ccccc2C(F)(F)F)C2=C(CCCC2=O)N1 (stereo not shown) [ST052228, 2-phenylethyl 2-methyl-5-oxo-4-[2-(trifluoromethyl)phenyl]-1,4,6,7,8-pentahydroquinoline-3-carboxylate] | 60.4 | 36.9 | – |
| CCCCOC(=O)C1=C(C)NC2=C(C(=O)CC(C)(C)C2)C1c1cccc(I)c1 (stereo not shown) [ST056056, butyl 4-(3-iodophenyl)-2,7,7-trimethyl-5-oxo-1,4,6,7,8-pentahydroquinoline-3-carboxylate] | 6.56 | 12.3 | – |
| CCCOc1ccccc1C1C(C(=O)OCC(C)C)=C(C)NC2=C1C(=O)CC(c1ccccc1)C2 (stereo not shown) [ST016984, 2-methylpropyl 2-methyl-5-oxo-7-phenyl-4-(2-propoxyphenyl)-1,4,6,7,8-pentahydroquinoline-3-carboxylate] | 25.4 | 56.2 | – |
| COC(=O)C1=C(C)NC2=C(C(=O)CC(c3ccccc3Cl)C2)C1c1cccc([N+](=O)[O-])c1 (stereo not shown) [ST015070, methyl 7-(2-chlorophenyl)-2-methyl-4-(3-nitrophenyl)-5-oxo-1,4,6,7,8-pentahydroquinoline-3-carboxylate] | 65.4 | 97 | – |
| CCc1ccc(C2C(C(=O)OC3CCCC3)=C(C)NC3=C2C(=O)CC(C)(C)C3)cc1 (stereo not shown) [ST013227, cyclopentyl 4-(4-ethylphenyl)-2,7,7-trimethyl-5-oxo-1,4,6,7,8-pentahydroquinoline-3-carboxylate] | 0 | 92.7 | – |

| SMILES | activity at 5 µM [1, 3] [%] | activity at 5 µM [2, 4] [%] | also measured |
| --- | --- | --- | --- |
| COc1cc(Br)ccc1/C=c1\sc2n(c1=O)C(N)=C(C#N)C(c1ccc(Br)cc1OC)C=2C#N (stereo not shown) [RI_94] | – | – | Aβ1-40 (% of control) [1]: 73.2 % of control; Aβ1-42 (% of control) [2]: 81.2 % of control |
| N[C@@H](Cn1ccc(=O)c(O)c1)C(=O)O [ST056312, (2S)-2-amino-3-(3-hydroxy-4-oxohydropyridyl)propanoic acid] | – | – | activity at 5 µM ([1]; Table 3): 70.7%; activity at 5 µM [2, 5]: 37.1% |
| CCOc1cc(C2C(C(=O)OCc3ccccc3)=C(C)NC3=C2C(=O)CCC3)ccc1O (stereo not shown) [ST013242, phenylmethyl 4-(3-ethoxy-4-hydroxyphenyl)-2-methyl-5-oxo-1,4,6,7,8-pentahydroquinoline-3-carboxylate] | 81.2 | 64.4 | – |
| CC1=C(C(=O)OCc2ccccc2)C(c2ccccc2)C2=C(CC(C)(C)CC2=O)N1 (stereo not shown) [ST013215, phenylmethyl 2,7,7-trimethyl-5-oxo-4-phenyl-1,4,6,7,8-pentahydroquinoline-3-carboxylate] | 0 | 88.6 | – |
| CCOC(=O)C1=C(C)NC(C)=C(C(=O)OCC)C1c1cccc(NC(=O)C(F)(F)F)c1 [ST003836, ethyl 5-(ethoxycarbonyl)-2,6-dimethyl-4-[3-(2,2,2-trifluoroacetylamino)phenyl]-1,4-dihydropyridine-3-carboxylate] | – | – | Aβ1-40 (% of control) [1]: 45.34 % of control; Aβ1-42 (% of control) [2]: 83.98 % of control |
| CCCCOC(=O)C1=C(C)NC2=C(C(=O)CCC2)C1c1ccccc1OCCCC (stereo not shown) [ST013330, butyl 4-(2-butoxyphenyl)-2-methyl-5-oxo-1,4,6,7,8-pentahydroquinoline-3-carboxylate] | 38 | 86.5 | – |
| CC1=C(C(=O)Nc2ccccc2)C(c2ccsc2)C(C#N)=C(SCC(=O)Nc2ccccc2)N1 (stereo not shown) [RI_6] | – | – | Aβ1-40 (% of control) [1]: 77.7 % of control; Aβ1-42 (% of control) [2]: 65.1 % of control |
| COC(=O)C1=C(C)NC2=C(C(=O)CC(C)(C)C2)C1c1cccc(Cl)c1Cl (stereo not shown) [ST013151, methyl 4-(2,3-dichlorophenyl)-2,7,7-trimethyl-5-oxo-1,4,6,7,8-pentahydroquinoline-3-carboxylate] | 52.1 | 61.6 | – |
| COC(=O)C1=C(C)NC2=C(C(=O)CC(C)(C)C2)C1c1ccc(OCc2cccc(Cl)c2)c(OC)c1 (stereo not shown) [ST028592, methyl 4-{4-[(3-chlorophenyl)methoxy]-3-methoxyphenyl}-2,7,7-trimethyl-5-oxo-1,4,6,7,8-pentahydroquinoline-3-carboxylate] | 28.3 | 97.1 | – |
| CCC(C)OC(=O)C1=C(C)NC2=C(C(=O)CC(c3ccc(Cl)cc3)C2)C1c1cc(OC)c(OC)c(OC)c1 (stereo not shown) [ST017091, methylpropyl 7-(4-chlorophenyl)-2-methyl-5-oxo-4-(3,4,5-trimethoxyphenyl)-1,4,6,7,8-pentahydroquinoline-3-carboxylate] | 65.7 | 91 | – |
| CCCOC(=O)C1=C(C)NC2=C(C(=O)CCC2)C1c1cccnc1 (stereo not shown) [ST017250, propyl 2-methyl-5-oxo-4-(3-pyridyl)-1,4,6,7,8-pentahydroquinoline-3-carboxylate] | 28.5 | 49.2 | – |
| COC(=O)C1=C(C)N(C)C(C)=C(C(=O)OC)C1c1ccccn1 [ST024568, methyl 5-(methoxycarbonyl)-1,2,6-trimethyl-4-(2-pyridyl)-1,4-dihydropyridine-3-carboxylate] | – | – | Aβ1-40 (% of control) [1]: 67.61 % of control; Aβ1-42 (% of control) [2]: 70.13 % of control |
| C=CCOC(=O)C1=C(C)NC2=C(C(=O)CCC2)C1c1ccc(OC)c(OC)c1OC (stereo not shown) [ST014969, prop-2-enyl 2-methyl-5-oxo-4-(2,3,4-trimethoxyphenyl)-1,4,6,7,8-pentahydroquinoline-3-carboxylate] | 39.7 | 83.3 | – |
| CSC1=C(C#N)C(c2ccccc2)C(C(=O)Nc2ccc(Cl)cc2)=C(C)N1 (stereo not shown) [RI_5] | – | – | Aβ1-40 (% of control) [1]: 81.4 % of control; Aβ1-42 (% of control) [2]: 82.2 % of control |
| CC1=C(C(=O)Nc2ccccc2)C(c2ccsc2)C(C#N)=C(SCC(=O)Nc2ccc(Cl)cc2)N1 (stereo not shown) [RI_75] | – | – | Aβ1-40 (% of control) [1]: 27.3 % of control; Aβ1-42 (% of control) [2]: 38.6 % of control |
| CC1=C(C(=O)Nc2ccccc2)C(c2cccs2)C(C#N)=C(SCC(=O)NCCc2ccccc2)N1 (stereo not shown) [RI_27] | – | – | Aβ1-40 (% of control) [1]: 34.4 % of control; Aβ1-42 (% of control) [2]: 26.5 % of control |
